Like-named read-outs stand apart in the source and are kept apart here.
Tests used:
[1] = Rat pharmacokinetics after single intraperitoneal injection of 100 mg/kg; type: in vivo, Sprague–Dawley rats; details: for AUC(0-inf) / Tmax / half-life: Sprague-Dawley, rat, ip, plasma
Description: The pharmacokinetics of TRX-E-002-1 was evaluated in male female Sprague–Dawley rats following a single intraperitoneal injection of 100 mg/kg TRX-E-002-1 in 20% SBECD vehicle. Absorption was rapid, with C max mean plasma concentrations reached 0.25/1 h after dosing in female/male rats. […] Mean plasma levels decreased to below the limit of quantification by 24 h (not shown). The AUC0−∞ value was 29,537 and 44,702 ng h/mL in female and male rats, respectively (Table 2). High tissue levels were observed 0.5–6 h after dosing, with levels higher than the plasma concentration in pancreas, ovaries, large intestine, skin, kidneys, liver, stomach and adrenal glands (not shown). Treatment of plasma and tissue samples with glucuronidase indicated the presence of low levels of a glucuronide conjugate of TRX-E-002-1 (not shown). Other metabolic pathways have not yet been investigated. […] Parent drug was excreted in the urine and faeces, and high levels of the glucuronide metabolite were found in the faeces.
Tissue concentrations of total drug (parent + glucuronide) were also similar to those in plasma except in liver, where they were 2–3 times higher.

[2] = system: wild-type human ether-à-go-go-related gene (hERG); test: hERG trafficking, surface expression of wild-type hERG; type: cell-based
hERG current = biological target: T1, hERG current (Homo sapiens, UniProt Q12809); test: Patch-clamp electrophysiological assay in hERG-transfected mammalian cells; type: cell-based; details: read-out: IC50 for inhibition of hERG current
T1 construct: expressed in transfected cells

[3] = Rat 14-day pilot repeat-dose intraperitoneal toxicity study; type: in vivo; details: for deaths: 50 mg/kg/day; for AUC(0-t) / Cmax: plasma, Day 14, 5 mg/kg/day; for Cmax: read-out: plasma C max
Description: Clinical signs at all dose levels were reduced and/or liquid faeces, and staining of the fur of the forelimbs or around the eyes, nose and snout. […] Macroscopic pathology findings were limited to the 50 mg/kg/day group and included small testes, small thymus and small spleen.

caspases 3/7 and 9 = test: Caspase activity in OCSC2 cells; type: cell-based, human
Description: The role of caspases and intracellular signalling pathways in the anticancer activity of TRX-E-002-1 was investigated in OCSC2 ovarian cancer stem cells. […] TRX-E-002-1 also modulated phosphorylation of intracellular signalling molecules, with decreased levels of pERK (phosphorylated extracellular signal-regulated kinase) and increased levels of phosphorylated c-Jun (p–c-Jun). Activated p–c-Jun levels increased progressively over the 24-h incubation period in response to both concentrations of TRX-E-002-1 tested. […] Increased p–c-Jun and decreased pERK levels were observed following incubation of OCSC2 cells after only 2-h’ exposure, indicating these changes are one of the earliest effects of TRX-E-002-1 treatment.

[4] = system: chemo-sensitive CD44−/MyD88− ovarian cancer cell lines; test: Cell death in chemo-sensitive ovarian cancer cell lines; type: cell-based, human; details: grown separately or in co-cultures
Excerpt: Tumour recurrence post-chemotherapy is caused by the regrowth of the surviving innately drug-resistant cancer stem cells that remain in tumour niches during and post-chemotherapy. The expansion of this chemo-resistant cancer cell population, coupled with upregulation of pro-survival pathways due to drug pressure, is thought to be responsible for the development of chemo-resistant recurrent disease. Further, the inherent heterogeneity of ovarian tumours consists of epithelial cells with varying potential for stemness, and a population of cancer cells with varying mesenchymal status and invasiveness potential. Therefore, to improve survival, a practical approach is the use of novel therapies that can induce cell death in these various subtypes of ovarian cancer cells. TRX-E-002-1 was assessed against ovarian cancer stem cell line OCSC2, characterised by their expression of stem cell markers including CD44 and […] [22]. A major characteristic of these cells is that they are drug resistant, able to form self-renewing spheroids in non-adherent culture, and recreate disseminated drug-resistant ovarian tumours that have a high degree of heterogeneity similar to the clinical profile observed in patients when inoculated into the peritoneal cavity of an immune-compromised mouse.

[5] = system: micronucleated polychromatic erythrocytes (PCEs) in bone marrow; test: Bone marrow micronucleus test; type: in vivo, ARC(S) Swiss mice; details: for frequency of micronucleated PCEs: female mice
Description: The assays were performed in compliance with GLP regulations.
The bone marrow micronucleus test was the in vivo part of the ICH genotoxicity testing battery and was conducted in ARC(S) Swiss mice. Eight groups of mice (10/sex/group) were given an intraperitoneal injection of vehicle (20% w/v SBECD) or Cantrixil at 50, 200 or 400 mg/kg and were killed 24 or 48 h later. Dimethyl-1,2 benzanthracene was used as the positive control. After preparation of the bone marrow cells, the number of micronucleated polychromatic erythrocytes (PCEs) was determined in 4000 PCEs per animal, and the proportion of PCEs in the total erythrocyte population in bone marrow was calculated from the examination of at least 500 erythrocytes as an index of bone marrow toxicity. […] The proportion of PCEs in the total erythrocyte population was decreased in both sexes at the 200 and 400 mg/kg doses at both kill times. TRX-E-002-1 is therefore considered clastogenic in this system at the described concentrations in vivo [the equivalent 200/400 mg/kg dose in a […] is 16.2 mg/kg (600 mg/m^2)/32.4 mg/kg (1200 mg/m^2) in a 60-kg human].

[6] = system: human Panc-1 pancreatic tumour cells implanted orthotopically; test: Orthotopic model of pancreatic cancer; type: in vivo, female NOD-SCID mice; details: 100 mg/kg i.p. once daily in 20% SBECD, 18 consecutive days; p < 0.001
Description: Fig. 3 Efficacy of TRX-E-002-1 in an orthotopic model of pancreatic cancer. Female NOD-SCID mice were inoculated directly into the pancreas with PANC-1 human pancreatic epithelioid adenocarcinoma cells transfected with luciferase gene. Tumours were allowed to establish prior to treatment initiation. Animals were dosed with TRX-E-002-1 100 mg/kg i.p. for 18 consecutive days over which time tumour growth was monitored using bioluminescent imaging. Following euthanasia at the predetermined end-point, tumours were excised and weighed. Final tumour (plus pancreas) weights excised at the terminal time point. *p < 0.001

[7] = female, Sprague-Dawley, rat, ip, females
[8] = male, Sprague-Dawley, rat, ip, males

T1 sequence (Q12809 whole entry): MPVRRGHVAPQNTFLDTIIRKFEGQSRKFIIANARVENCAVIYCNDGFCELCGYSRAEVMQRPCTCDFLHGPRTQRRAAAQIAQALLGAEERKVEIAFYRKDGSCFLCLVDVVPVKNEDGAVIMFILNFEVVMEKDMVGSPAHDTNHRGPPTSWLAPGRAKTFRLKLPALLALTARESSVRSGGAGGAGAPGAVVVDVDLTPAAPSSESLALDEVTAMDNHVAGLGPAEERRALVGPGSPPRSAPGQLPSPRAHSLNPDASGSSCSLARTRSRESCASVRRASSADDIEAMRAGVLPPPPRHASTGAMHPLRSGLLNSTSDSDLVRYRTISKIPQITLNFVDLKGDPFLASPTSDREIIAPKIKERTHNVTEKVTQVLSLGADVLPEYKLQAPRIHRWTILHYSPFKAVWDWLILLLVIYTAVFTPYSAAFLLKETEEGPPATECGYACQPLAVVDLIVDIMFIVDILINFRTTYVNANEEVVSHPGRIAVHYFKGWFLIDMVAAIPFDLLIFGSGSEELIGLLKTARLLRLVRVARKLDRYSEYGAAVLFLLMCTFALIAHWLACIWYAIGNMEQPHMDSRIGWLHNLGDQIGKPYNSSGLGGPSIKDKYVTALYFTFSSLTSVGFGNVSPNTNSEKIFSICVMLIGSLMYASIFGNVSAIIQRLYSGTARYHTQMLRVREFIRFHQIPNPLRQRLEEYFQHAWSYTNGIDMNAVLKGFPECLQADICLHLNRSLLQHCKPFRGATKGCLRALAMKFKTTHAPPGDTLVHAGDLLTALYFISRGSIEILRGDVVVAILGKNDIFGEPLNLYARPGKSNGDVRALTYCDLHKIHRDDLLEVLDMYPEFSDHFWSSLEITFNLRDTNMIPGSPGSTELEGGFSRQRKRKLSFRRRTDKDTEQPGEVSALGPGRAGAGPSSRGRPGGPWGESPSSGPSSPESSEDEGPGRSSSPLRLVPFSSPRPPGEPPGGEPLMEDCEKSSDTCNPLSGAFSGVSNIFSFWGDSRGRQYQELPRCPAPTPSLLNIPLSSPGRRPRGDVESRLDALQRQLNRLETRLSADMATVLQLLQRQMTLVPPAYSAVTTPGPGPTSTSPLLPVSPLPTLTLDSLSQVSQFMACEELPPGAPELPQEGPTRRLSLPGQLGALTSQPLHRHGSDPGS

For `COc1cc([C@@H]2COc3c(ccc(O)c3C)[C@@H]2c2ccc(O)cc2)cc(OC)c1O` [TRX-E-002-1, (+) cis-4-(para-hydroxyphenyl)-7,4′-dihydroxy-3′,5′-dimethoxy-8-methylisoflavan], the “time by which mean plasma levels were below the limit of quantification” value ([1]; 100 mg/kg i.p.) was no more than 24 h, the AUC(0-inf) ([1]; female rats, 100 mg/kg i.p.) was 29500 ng·h/mL and the Tmax ([1]; female rats, 100 mg/kg i.p.) was 0.25 h. It also gave an AUC(0-inf) ([1]; male rats, 100 mg/kg i.p.) of 44700 ng·h/mL, a Tmax ([1]; male rats, 100 mg/kg i.p.) of 1 h and a half-life ([1]; female rats, 100 mg/kg i.p., read-out: T ½ (plasma elimination half-life) (converted)) of roughly 1.3 h. For the same molecule, the half-life ([1]; male rats, 100 mg/kg i.p., read-out: plasma elimination half-life (converted)) was roughly 1.9 h, the “plasma unconjugated TRX-E-002-1 as share of total levels (parent + glucuronide)” value ([1]; female rats, up to 6 h after dosing) was “approximately 90%” and the “surface expression of wild-type hERG” value [2] was “does not affect”. For the same molecule, the IC50 (hERG current) was 17 µM, the deaths ([3]; females) was 8/11 and the deaths ([3]; males) was 9/11. For the same molecule, the NOAEL at 14 days ([3]; both sexes, Sprague-Dawley, rat, in vivo, ip) was 5 mg/kg/day, the AUC(0-t) [3, 7] was 665 ng·h/mL and the Cmax [3, 7] was 257 ng/mL. The “doses with reduced body weight gain” value ([3]; females) was no less than 15 mg/kg/day, the AUC(0-t) [3, 8] was 1870 ng·h/mL and the Cmax [3, 8] was 909 ng/mL. The “doses with reduced body weight gain” value ([3]; males) was no less than 5 mg/kg/day, the “activity of caspases 3/7 and 9” value (caspases 3/7 and 9) was “markedly increased” and the “induction of cell death” value [4] was “able to induce cell death”. For the same molecule, the “clastogenicity, overall conclusion” value ([5]; at the described concentrations in vivo) was “clastogenic”, the “proportion of PCEs in the total erythrocyte population” value ([5]; both sexes, 200 and 400 mg/kg, both kill times) was “decreased” and the “frequency of micronucleated PCEs” value ([5]; 200 mg/kg i.p., 24 and 48 h) was “significantly increased”. For the same molecule, the “frequency of micronucleated PCEs” value ([5]; 400 mg/kg i.p., 24 h) was “significantly increased”, the “slight increases in frequency of micronucleated PCEs” value ([5]; male mice, 200 and 400 mg/kg i.p.) was “not statistically significant” and the “terminal pancreatic tumour burden” value [6] was “significantly reduced”.
